Test results reported in patent US11873486B2, “Modulating dsRNA editing, sensing, and metabolism to increase tumor immunity and improve the efficacy of cancer immunotherapy and/or modulators of intratumoral interferon” (Dana-Farber Cancer Institute, Inc., priority 2017, dated 2024).
Entries after “also recorded” stand apart in the source; their conditions may differ.

B1: IFNβ: mouse interferon beta (1000 U/mL, PBL) used on B16 cells (protein, UniProt P01575 22-182, looked up)
Interferon beta: INYKQLQLQERTNIRKCQELLEQLNGKINLTYRADFKIPMEMTEKMQKSYTAFAIQEMLQNVFLVFRNNFSSTGWNETIVVRLLDELHQQTVFLKTVLEEKQEERLTWEMSSTALHLKSYYWRVQRYLKLMKYNSYAWMVVRAEIFRNFLIIRRLTRNFQN

Key:
[1] = test system: HCC366, NCI-H1650 and NCI-H196 cell lines; assay: Cell viability after CRISPR-Cas9 knockout of ADAR1 (CellTiter-Glo); format: cell-based, human; conditions: 6 days after CRISPR-Cas9 knockout of ADAR1
Description: (§1) guide RNA sequences were designed using the sgRNA designer tool on The RNAi Consortium (TRC) portal (available on the World Wide Web at portals.broadinstitute.org/gpp/public/analysis-tools/sgrnadesign). […] Guide sequences were cloned into the Cas9 expressing lentiviral vector CRISPRv2 (available on the World Wide Web at genomeengineering.org/crispr). For virus production, each CRISPRv2 vector and packaging vectors were introduced into 293T cells via calcium phosphate transfection (Clontech). Lentivirus was harvested in RPMI media supplemented with 10% FBS and filtered before addition to each cancer cell line. Infected cells were selected in 2 μg/ml puromycin or 10 μg/ml blasticidin for 7 days. Following this, protein lysates were harvested or cells were plated for proliferation assays in 96 well plates and grown in the presence of RPMI containing 10% FBS and 1 μg/ml puromycin or 5 μg/ml blasticidin. Immunoblotting confirmed decreased protein levels of each gene across the pool of infected cells. For cell viability experiments, cells were plated at a density of 3000 cells per well in a 96-well assay plate. Cell viability was assayed 3 and 6 days later with the CellTiter-Glo® Luminescent Cell Viability Assay kit (Promega). […]

ADAR1 = assay: Immunoblot of ADAR1 after CRISPR-Cas9 knockout; format: cell-based, human; conditions: A549 cells
Method: (§2) Cells were lysed in RIPA lysis buffer (Thermo Scientific) supplemented with 1× protease and phosphatase inhibitor cocktails (Roche). Protein extracts were analyzed by standard immunoblotting with the following antibodies: ADAR1 (D7E2M), MDA5 (D74E4), RIG-I (D14G6), ISG15 (22D2), USP18 (D4E7), PKR (#3072), STING (D2P2F), cGAS (D1D3G), IRF9 (D2T8M), PD-L1 (E1L3N), P-IRF3 Ser396 (4D4G), IRF3 (D6I4C), P-TBK1 Ser172 (D52C2), TBK1 (D1B4), P-EIF2α Ser51 (#9721), and EIF2α (D7D3) from Cell Signaling; P-PKR Thr446 (ab32036) from Abcam; R-actin C4 (sc-47778) from Santa Cruz. All antibodies were used at a dilution of 1:1000 except R-actin which was used at 1:4000). The following secondary antibodies were used at 1:5000 dilution: Goat anti-Rabbit IRDye 800CW (LI-COR, 926-32211) and Goat anti-Mouse IRDye […] (LI-COR, 926-68020). All immunoblots were imaged using the LI-COR digital imaging system and ImageJ.
guide RNA sequences were designed using the sgRNA designer tool on The RNAi Consortium (TRC) portal (available on the World Wide Web at portals.broadinstitute.org/gpp/public/analysis-tools/sgrnadesign). […] Guide sequences were cloned into the Cas9 expressing lentiviral vector CRISPRv2 (available on the World Wide Web at genomeengineering.org/crispr). For virus production, each CRISPRv2 vector and packaging vectors were introduced into 293T cells via calcium phosphate transfection (Clontech). […]

A549 cells = assay: Cell viability after CRISPR-Cas9 knockout of ADAR1, control cells; format: cell-based, human; conditions: 6 days after CRISPR-Cas9 knockout of ADAR1
Description: as §1

ADAR = assay: Western blot of ADAR isoforms in B16 cells; format: cell-based, mouse; conditions: with or without IFNβ addition
Method: Whole cell lysates were prepared in lysis buffer (60 mM Tris HC, 2% SDS, 10% glycerol, complete EDTA-free protease-inhibitor (Roche, Basel, Switzerland), and 500 U/mL benzonase nuclease (Novagen, Merck, Darmstadt, Germany)). Samples were boiled at 100° C. and clarified by centrifugation. Protein concentration was measured with a BCA protein assay kit (Pierce, Dallas, Texas). Fifty to one hundred and fifty micrograms of protein was loaded on 4-12% Bolt® Bis-Tris Plus gels (Life Technologies, Carlsbad, CA) in MES buffer (Life Technologies). Protein was transferred to 0.45 μm nitrocellulose membranes (Bio-Rad, Hercules, CA). Membranes were blocked in Tris-buffered saline plus 0.1% Tween 20 (TBS-T) containing 5% non-fat dry milk for 1 hour at room temperature followed by overnight incubation with primary antibody at 4° C. Membranes were washed with TBS-T and incubated with HRP-conjugated secondary antibodies for 1 hour at room temperature. […] Blots were then analyzed using ImageJ and Adobe® Photoshop® software. […]
Whole cell lysates were prepared in lysis buffer (60 mM Tris HCl, 2% SDS, 10% glycerol, complete EDTA-free protease-inhibitor (Roche), and 500 U/mL benzonase nuclease (Novagen)). […] Protein concentration was measured with a BCA protein assay kit (Pierce). […] Blots were then analyzed using ImageJ and Adobe Photoshop software. […]

[2] = test system: A549 ADAR1 knockout cells; assay: Immunoblot of interferon regulated genes in ADAR1 knockout cell lines; format: cell-based, human; conditions: 500 nM
Method: as §2

[3] = test system: ADAR1 knockout A549 cells; assay: Viability of ADAR1 knockout A549 cells with interferon or drug treatment; format: cell-based, human
Method: For drug treatment assays, cells were plated at a density of 3000 cells per well in a 96-well assay plate. The following day, cells were treated with ruxolitinib (INCB018424) from Selleck Chemicals; MRT67307 hydrocloride (SML0702) from Sigma-Aldrich; human interferon-alphal (#8927) from Cell Signaling; recombinant human IFN-beta 1a (mammalian) protein (114151) and recombinant human IFN-gamma protein (285-IF-100) from R&D Systems. For preincubation drug treatment experiments, cells were plated in the presence of ruxolitinib and were treated with interferon-0 and ruxolitinib the following day. Control wells were treated with dimethylsulfoxide (DMSO). Cell viability was assayed 3 or 6 days after drug treatment with CellTiter-Glo® Luminescent Cell Viability Assay kit (Promega). Viability was normalized to DMSO controls.
for interferon treatment assays, cells were plated at a low density of 3000 cells per well in a 96-well assay plate. The following day, cells were treated with human interferon-alpha 1 (Cell Signaling, #8927) or recombinant human IFN-beta 1a (mammalian) protein (PBL Assay Science, 114151). Control wells were treated with water. Cell viability was assayed 3 or 6 days after drug treatment with CellTiter-Glo© Luminescent Cell Viability Assay kit (Promega). Viability was normalized to controls. Apoptosis was assayed 3 days after interferon treatment with Caspase-Glo®3/7 Assay kit (Promega). Dose curves were obtained using least-squares nonlinear regression on a standard four-parameter logistic model using GraphPad Prism.

B16 tumor cells [4] = assay: IFNβ ELISA of tumor cell supernatant; format: cell-based, mouse; conditions: Adar-deficient B16 tumor cells
Method: (§3) FIG. 9 includes 3 panels, identified as panels A, B, and C, which provide exemplary mechanisms of ADAR-induced sensitivity to checkpoint blockade. […] A certain number of B16 tumor cells (50 k; Adar null or control) were stimulated in vitro with cytokine for 72 hours and the cell numbers were then counted. […] A certain number of B16 tumor cells (50 k; Adar null or control) were stimulated with cytokine in vitro, washed to remove cytokine (for IFNβ), and evaluated via IFNβ ELISA. […] A certain number of B16 tumor cells (50 k; Adar null or control) were stimulated in vitro with cytokine for 72 hours and stained for Class I MHC and PD-L1.
Cells were seeded at a density of 10,000 cells per well in a 96-well plate. Mouse interferon beta (pbl assay science) was then added. After 24 hrs of incubation at 37° C., the supernatant was aspirated from the wells to remove the mouse interferon beta. The wells were then gently washed once with media. Fresh warm media was then replaced in the wells. After 48 hrs of incubation at 37° C., the supernatant was collected, and the concentration of interferon beta was determined using The VeriKine Mouse Interferon Beta ELISA Kit (pbl assay science).

B16 tumor cells [5] = assay: In vitro cytokine stimulation and growth inhibition assay; format: cell-based, mouse; conditions: Adar-deficient versus control B16 tumor cells, 72 hours
Method: as §3
Tumor cells were engineered as noted above and plated in DMEM+10% FBS containing the indicated combinations of cytokines: IFN (1,000 U/ml, PBL), IFN (100 ng/ml, Cell Signaling Technologies), TNF (10 ng/ml, PreproTech). For rescue/re-expression experiments, 10,000 cells were plated in 96-well plates and viable cells were enumerated after 72 hours using Cell Titer-Glo® (Promega, G7570). For all other growth inhibition assays, 50,000 cells were plated in 12-well plates and viable cells were counted after 72 hours using the Countess automated cell counting system (Thermo Fisher Scientific, C10227).

Molecule | viability [1] | ADAR1 protein (immunoblot) (ADAR1) | viability (A549 cells) | depletion of ADAR isoforms (Western blot) (ADAR) | further results
AGATAGCCATGCTGAGCCAC (chemistry not fully specified) [ADAR1 sg2] | decreased viability | knockout of ADAR1 isoforms p150 and p110 | no effect on control cells |  | 
CACCGTCTGGATTCACAACTCCAGG (antisense AAACCCTGGAGTTGTGAATCCAGAC; listed as DNA, chemistry not fully specified) [Mouse Adar sgRNA1, P150 only] |  |  |  | effectively depleted the P150 isoform of ADAR, but not the P110 isoform of ADAR | 
CACCGTCTACAGCCCTACCTTGCCA (antisense AAACTGGCAAGGTAGGGCTGTAGAC; listed as DNA, chemistry not fully specified) [Mouse Adar sgRNA 2, P110 and P150] |  |  |  | effectively depleted both isoforms | 
GTGCATACACTCAAGCAGTG (chemistry not fully specified) [ADAR1 sg1] | decreased viability | knockout of ADAR1 isoforms p150 and p110 | no effect on control cells |  | 
Nc1ncn([C@@H]2O[C@H](CO)[C@@H](O)[C@H]2O)c(=O)n1 [azacitidine, 5-azacytidine] |  |  |  |  | expression of MDA5 [2]: induced expression of interferon regulated gene MDA5; phosphorylation of EIF2α [2]: increased phosphorylation of EIF2α; sensitization to ADAR1 knockout [3]: sensitized A549 cells to ADAR1 knockout
B1 |  |  |  |  | IFNβ secretion after interferon stimulation (B16 tumor cells [4]): make IFNβ when stimulated with IFNβ; cytokine-induced growth arrest (B16 tumor cells [5]): increases IFNβ and IFNγ-induced growth arrest; also recorded: increases susceptibility to IFNβ and IFNγ
